{"source": "patent US7067694B2", "about": "“Halogen-substituted amino dicarboxylic acid derivatives as medicaments for treating cardiovascular diseases” (Bayer Aktiengesellschaft, priority 2001, dated 2006)", "data": [{"test_system": "arteria saphena rings", "test": "Vasorelaxant effect in vitro (phenylephrine-contracted rabbit arteria saphena rings)", "assay_type": "cell-based, Rabbits", "settings": "Oryctolagus cuniculus, contraction by phenylephrine, 37° C., 0.1% DMSO, read-out: IC50, concentration necessary to reduce the height of the contraction control value by 50%", "description": "Vasorelaxant Effect in vitro\nRabbits are anesthetized or killed by intravenous injection of thiopental sodium (about 50 mg/kg) and exsanguinated. The arteria saphena is removed and divided into rings 3 mm wide. The individual rings are in each case mounted on a pair of hooks of triangular shape, open at the ends and made of special wire (Remanium®) having a diameter of 0.3 mm. Under pretension, each ring is introduced into a 5 ml organ bath containing carbogen-gassed Krebs-Henseleit solution at 37° C. with the following composition (mM): NaCl: […]; KCl: 4.8; CaCl2×2H2O: 1; MgSO4×7H2O: 1.4; KH2PO4: 1.2; NaHCO3: 25; glucose: 10; bovine serum albumin: 0.001%. The force of contraction is detected with Statham UC2 cells, amplified and digitized via A/D converters (DAS-1802 HC, Keithley Instruments, Munich) and recorded in parallel on chart recorders. Contractions are generated by adding phenylephrine.\nAfter several (generally 4) control cycles, the substance to be investigated is added in each further run in increasing dosage, and the height of the contraction reached under the influence of the test substance is compared with the height of the contraction reached in the last preceding run. The concentration necessary to reduce the height of the control value by 50% (IC50) is calculated from this. The standard application volume is 5 μl. The DMSO content in the bath solution corresponds to 0.1%.", "units": {"IC50": "nM"}, "values": [{"compound": "O=C(O)CCCCN(CCc1ccc(F)cc1OCc1ccc(C2CCCCC2)cc1)Cc1ccc(C(=O)O)cc1", "note": "[Example 1, 4-{[(4-carboxybutyl)(2-{2-[(4-cyclohexylbenzyl)oxy]-4-fluorophenyl}ethyl)amino]methyl}benzoic acid]", "IC50": 1.1}, {"compound": "O=C(O)CCCCN(CCc1cc(F)ccc1OCc1ccc(C2CCCCC2)cc1)Cc1ccc(C(=O)O)cc1", "note": "[Example 2]", "IC50": 1.5}, {"compound": "O=C(O)CCCCN(CCc1cc(Cl)ccc1OCc1ccc(-c2ccc(C(F)(F)F)cc2)cc1)Cc1ccc(C(=O)O)cc1", "note": "[Example 3]", "IC50": 1}, {"compound": "O=C(O)CCCCN(CCc1cc(Cl)ccc1OCc1ccc(-c2ccc(Cl)cc2)cc1)Cc1ccc(C(=O)O)cc1", "note": "[Example 6]", "IC50": 8.1}, {"compound": "COc1ccc(-c2ccc(COc3ccc(Cl)cc3CCN(CCCCC(=O)O)Cc3ccc(C(=O)O)cc3)c(Cl)c2)cc1", "note": "[Example 9]", "IC50": 8.3}]}, {"test_system": "not given", "test": "not given", "settings": "not given", "units": {"melting point": "°C"}, "values": [{"compound": "O=C(O)CCCCN(CCc1ccc(F)cc1OCc1ccc(C2CCCCC2)cc1)Cc1ccc(C(=O)O)cc1", "note": "[Example 1, 4-{[(4-carboxybutyl)(2-{2-[(4-cyclohexylbenzyl)oxy]-4-fluorophenyl}ethyl)amino]methyl}benzoic acid]", "melting point": "> 250"}]}]}
